# Assay results as given in patent US11286236B2, “Compound, agent and composition for the suppression of cancer growth” (Vector Vitale IP LLC, priority 2018, dated 2022).
# Key:
# Assay type in all cases: cell-based
# Normal Human Fibroblasts = test: Metabolic activity of normal human fibroblasts (MTT assay)
# Protocol: In Vitro Assessment of the Effects of Experimental Compound ^85Rbe-E2 on metabolic Activity of Normal Human Fibroblasts (MTT Assay)
# In Vitro Assessment of the Effects of E2+^85Rbe on Metabolic Activity of Normal Human Fibroblasts (MTT Assay)
# (§1) Proliferative and metabolic activity of cells was determined by the colorimetric method.
# (§2) The metabolic activity of the cells (i.e., the number of living cells) was assessed by MTT staining.
# (§3) 24 hours after the last reagent, the cells were seeded at a concentration of 1×10^4 cells/well in wells of a 96-well plate in complete DMEM nutrient medium with 10% FBS and 40 μg/ml gentamicin. The cells were cultured in a humidified atmosphere at 5% CO2 and 37° C. for 24 hours. After 24 hours, various doses of experimental substances were added to the respective wells. The cells were incubated at 37° C. and 5% CO2 for an additional 72 hours.
# (§4) Upon completion of the incubation with the preparations, the proliferative and metabolic activity of the cells in the experiment was evaluated by the colorimetric method by staining MTT cells:
# (§5) 10 μl of the MTT solution (5 mg/ml of the dye in phosphate-buffered saline) was added to each well of the plate; the plate was incubated in a CO2 incubator at 37° C. for 3 hours. After that, the medium was removed from the wells, and the formed tetraformazan crystals were dissolved in 100 μl of dimethylsulfoxide.
# (§6) When MTT was used, the results were evaluated using a multi-well spectrophotometer at an excitation wavelength of 540 nm. The percentage of viable cells was calculated by the formula: IR=(A540(experiment)/A540(control))×100%.
# Mouse Bone Marrow Cells = test: Cytotoxic/cytostatic effects on mouse bone marrow cells (MTT assay)
# Protocol: In Vitro Assessment of Cytotoxic/Cytostatic Effects of Experimental Compound ^85Rbe-E2 on Mouse Bone Marrow Cells
# as §1, §2, §3, §4, §5, §6
# [1] = system: human Keratinocytes (HaCaT line); test: Metabolic activity of human keratinocytes (HaCaT line)
# Protocol: In Vitro Effects of Experimental Compound ^85Rbe-E2 on metabolic activity of human Keratinocytes
# as §1, §2, §3, §4, §5, §6
# [2] = system: Mouse melanoma cells (MM-4 cell line); test: Cytotoxic effect on melanoma cells, single agents (crystal violet)
# Protocol: Materials and Methods: Mouse melanoma cells (MM-4 cell line) were seeded into 96-well plates (TPP, Italy) in DMEM (High Glucose w/L-Glutamine w/o Sodium Pyruvate; Biowest, France) supplemented with 10% newborn calf serum (Biowest, France) and […] gentamicin (Sigma, USA) at a seeding density of 5×10^4 cells/ml. The cells were then cultured in an incubator with a humidified atmosphere of 5% CO2 in air at 37° C. 24 hours after the cells were seeded, a compound according to the invention that comprises ^85Rb-enriched rubidium salt of N-benzoyl-N′-(4-toluenesulfonyl)-o-phenylenediamine of formula I was added into the appropriate wells. ^85Rbe-E2 was used at the following doses: 2.0 μg/ml, 1.0 μg/ml, 0.5 μg/ml (each is the final concentration of ^85Rbe after addition to the well). The cytotoxic effect was determined by counting the number of live cells observed after treatment, expressed as a percentage of the number of live cells observed/counted in the control (cells seed in the well and not treated). Control cells were not treated. For each concentration, the experiment was carried out twice. The effects of the drugs were evaluated visually, which allowed us to examine the morphological pattern of the cytotoxic action of the drugs, and by staining the cells with crystal violet, followed by OD measurement at an excitation wavelength of 540 nm using a MultiScan spectrophotometer. For comparison, a parallel experiment was carried out with the use of a known antitumor drug cisplatin and a compound of rubidium salt of N-benzoyl-N′-(4-toluenesulfonyl)-o-phenylenediamine of formula I which comprised a naturally-abundant mixture of isotopes of rubidium instead of being enriched for the ^85Rb isotope.
smiles,measurement,setting,value
"Cc1ccc(S(=O)(=O)[N-]c2ccccc2NC(=O)c2ccccc2)cc1.[Rb+] [E2 + Rb, rubidium salt of N-benzoyl-N′-(4-toluenesulfonyl)-o-phenylenediamine]","Metabolic activity of cells, %",Normal Human Fibroblasts; 2.5 μg/ml,128.2 ± 8.3%
same,"Metabolic activity of cells, %",Normal Human Fibroblasts; 5 μg/ml,103.4 ± 9.3%
same,"Metabolic activity of cells, %",Normal Human Fibroblasts; 10 μg/ml,104.6 ± 14.2%
same,"Metabolic activity of cells, %",Normal Human Fibroblasts; 20 μg/ml,96.8 ± 9.8%
same,"Metabolic activity of cells, %",Normal Human Fibroblasts; 38 μg/ml,98.8 ± 7.1%
same,"Metabolic activity of cells, %",Normal Human Fibroblasts; 75 μg/ml,97.7 ± 7.5%
same,"Metabolic activity of cells, %",Normal Human Fibroblasts; 150 μg/ml,99.3 ± 3.2%
same,"Metabolic activity of cells, %",Mouse Bone Marrow Cells; 1.25 μg/ml,111.2 ± 6.6%
same,"Metabolic activity of cells, %",Mouse Bone Marrow Cells; 2.5 μg/ml,106.8 ± 6%
same,"Metabolic activity of cells, %",Mouse Bone Marrow Cells; 5 μg/ml,106.7 ± 11.8%
same,"Metabolic activity of cells, %",Mouse Bone Marrow Cells; 10 μg/ml,99.3 ± 4.7%
same,"Metabolic activity of cells, %",Mouse Bone Marrow Cells; 20 μg/ml,88 ± 3.5%
same,"Metabolic activity of cells, %",Mouse Bone Marrow Cells; 38 μg/ml,96.2 ± 4.4%
same,"Metabolic activity of cells, %",Mouse Bone Marrow Cells; 75 μg/ml,105.2 ± 7.8%
same,"Metabolic activity of cells, %",Mouse Bone Marrow Cells; 150 μg/ml,107.1 ± 3.8%
same,"Metabolic activity of cells, %",[1]; 16 ng/ml,104.7 ± 3.2%
same,"Metabolic activity of cells, %",[1]; 31 ng/ml,99.2 ± 12.5%
same,"Metabolic activity of cells, %",[1]; 62 ng/ml,97.3 ± 4.1%
same,"Metabolic activity of cells, %",[1]; 0.13 μg/ml,87.5 ± 6.7%
same,"Metabolic activity of cells, %",[1]; 0.25 μg/ml,95 ± 1.7%
same,"Metabolic activity of cells, %",[1]; 0.5 μg/ml,103 ± 2.7%
same,"Metabolic activity of cells, %",[1]; 1 μg/ml,130 ± 2%
same,"Number of cells after their treatment with the drug, %",[2]; 0.5 μg/ml of rubidium (85Rbe or Rb),90.6 ± 0.9%
same,"Number of cells after their treatment with the drug, %",[2]; 1.0 μg/ml of rubidium (85Rbe or Rb),84.9 ± 0.9%
same,"Number of cells after their treatment with the drug, %",[2]; 2.0 μg/ml of rubidium (85Rbe or Rb),62.1 ± 0.8%
same,Activity against tumor cells compared with the 85Rb-enriched salt,[2]; 0.5-2.0 μg rubidium/ml,significantly lower activity against tumor cells
